According to patent US4363805A, “Aminodesoxy-1.4;3.6-dianhydrohexitol nitrates and pharmaceutical composition” (Firma Willmar Schwabe, priority 1980, dated 1982):

Experiments:
[1] = system: isolated guinea pig hearts; assay: Experiments on Langendorff hearts (coronary flowthrough, inotropism, frequency); settings: Cavia porcellus, read-out: flowthrough, percentage change with regard to the initial value
Procedure: After reaching the stationary state in the 30th minute, the hearts were each perfused with 50 ml. tyrode solution with a content of test substance of, in each case, 25 μg./ml. Each test substance was tested on 3-6 hearts.
In each case, there was measured the inotropism, the flowthrough and the frequency, whereby the values given in Table I are average values of the percentage changes in comparison with the initial values.

mongrel cats = assay: Inotropic and heart-circulatory effectiveness on narcotised cats, intravenous; type: in vivo, cat; settings: 6 animals; for blood pressure before / dp/dt (inotropism) before / heart frequency before: before administration
[2] = Acute toxicity, intravenous, mice; type: in vivo; settings: mouse, in vivo; intravenous, within 24 hours; read-out: Evaluated LD50-range
female NMRI-albino mice = assay: Acute toxicity, intravenous, mice; type: in vivo; settings: within 24 hours

| SMILES | activation at 25 µg/mL [1] [%] | blood pressure before (mongrel cats; 0.25 mg/kg i.v.) [mm.Hg] | dp/dt (inotropism) before (mongrel cats; 0.25 mg/kg i.v.) [mm.Hg/sec] | heart frequency before (mongrel cats; 0.25 mg/kg i.v.) [min⁻¹] | blood pressure WD (mongrel cats; 0.25 mg/kg i.v.) [min] | blood pressure after (mongrel cats; 0.25 mg/kg i.v.) [mm.Hg] | blood pressure Δ (mongrel cats; 0.25 mg/kg i.v.) [mm.Hg] | dp/dt (inotropism) after (mongrel cats; 0.25 mg/kg i.v.) [mm.Hg/sec] | dp/dt (inotropism) Δ (mongrel cats; 0.25 mg/kg i.v.) [mm.Hg/sec] | dp/dt WD (mongrel cats; 0.25 mg/kg i.v.) [min] | heart frequency after (mongrel cats; 0.25 mg/kg i.v.) [min⁻¹] | blood pressure WD (mongrel cats; 0.50 mg/kg i.v.) [min] | blood pressure after (mongrel cats; 0.50 mg/kg i.v.) [mm.Hg] | blood pressure Δ (mongrel cats; 0.50 mg/kg i.v.) [mm.Hg] | dp/dt (inotropism) after (mongrel cats; 0.50 mg/kg i.v.) [mm.Hg/sec] | dp/dt (inotropism) Δ (mongrel cats; 0.50 mg/kg i.v.) [mm.Hg/sec] | LD50 at 24 h [2] [mg/kg] | Frequency of death (female NMRI-albino mice; 50 mg/kg i.v.) | Frequency of death (female NMRI-albino mice; 100 mg/kg i.v.) | Frequency of death (female NMRI-albino mice; 200 mg/kg i.v.) | further results |
| --- | --- | --- | --- | --- | --- | --- | --- | --- | --- | --- | --- | --- | --- | --- | --- | --- | --- | --- | --- | --- | --- |
| COc1ccc(CCCN[C@H]2CO[C@H]3[C@@H]2OC[C@@H]3O[N+](=O)[O-])cc1OC [31 b] | 79.4 | – | – | – | – | – | – | – | – | – | – | – | – | – | – | – | – | – | – | – | – |
| O=[N+]([O-])O[C@H]1CO[C@H]2[C@@H]1OC[C@@H]2NCCCOc1ccccc1 [Example 36, 5-(3-Phenoxypropylamino)-5-desoxy-1.4;3.6-dianhydro-L-iditol 2-nitrate] | – | 114.5 | 7933 | 200.3 | 5.1 | 97.7 | -19.8 | 7433 | -500 | 3.3 | 204.3 | 8.5 | 84.5 | -28.0 | 6650 | -1183 | 50 to 100 | 0/3 | 5/6 | – | dp/dt WD (mongrel cats; 0.50 mg/kg i.v.): 7.9 min; heart frequency after (mongrel cats; 0.50 mg/kg i.v.): 200.3 min⁻¹; heart frequency Δ (mongrel cats; 0.50 mg/kg i.v.): -3.7 min⁻¹; blood pressure WD (mongrel cats; 1.00 mg/kg i.v.): 14.8 min; blood pressure after (mongrel cats; 1.00 mg/kg i.v.): 74.3 mm.Hg; blood pressure Δ (mongrel cats; 1.00 mg/kg i.v.): -42.5 mm.Hg; dp/dt (inotropism) after (mongrel cats; 1.00 mg/kg i.v.): 5467 mm.Hg/sec; dp/dt (inotropism) Δ (mongrel cats; 1.00 mg/kg i.v.): -2416 mm.Hg/sec; dp/dt WD (mongrel cats; 1.00 mg/kg i.v.): 19.0 min; heart frequency after (mongrel cats; 1.00 mg/kg i.v.): 194.3 min⁻¹; heart frequency Δ (mongrel cats; 1.00 mg/kg i.v.): -8.0 min⁻¹; blood pressure WD (mongrel cats; 2.50 mg/kg i.v.): > 10 min; blood pressure after (mongrel cats; 2.50 mg/kg i.v.): 62.5 mm.Hg; blood pressure Δ (mongrel cats; 2.50 mg/kg i.v.): -58.3 mm.Hg; dp/dt (inotropism) after (mongrel cats; 2.50 mg/kg i.v.): 4000 mm.Hg/sec; dp/dt (inotropism) Δ (mongrel cats; 2.50 mg/kg i.v.): -3883 mm.Hg/sec; dp/dt WD (mongrel cats; 2.50 mg/kg i.v.): 10 min; heart frequency after (mongrel cats; 2.50 mg/kg i.v.): 175.3 min⁻¹; heart frequency Δ (mongrel cats; 2.50 mg/kg i.v.): -22.4 min⁻¹ |
| CN(CCc1ccccc1)[C@H]1CO[C@H]2[C@@H]1OC[C@@H]2O[N+](=O)[O-] [Example 20, 5-[N-(2-Phenylethyl)-N-methylamino]-5-desoxy-1.4;3.6-dianhydro-L-iditol 2-nitrate] | 66.9 | – | – | – | – | – | – | – | – | – | – | – | – | – | – | – | – | – | – | – | – |
| O=[N+]([O-])O[C@H]1CO[C@H]2[C@@H]1OC[C@@H]2NCCCCc1ccccc1 [Example 29, 5-(4-Phenylbutylamino)-5-desoxy-1.4;3.6-dianhydro-L-iditol 2-nitrate] | – | 106.8 | 6480 | 209.0 | 3.2 | 91.3 | -15.5 | 6000 | -480 | 1.6 | 204.3 | 4.1 | 91.3 | -22.0 | 6000 | -1040 | < 50 | 5/6 | 5/6 | 3/3 | heart frequency Δ (mongrel cats; 0.25 mg/kg i.v.): -4.7 min⁻¹; dp/dt WD (mongrel cats; 0.50 mg/kg i.v.): 8.2 min; heart frequency after (mongrel cats; 0.50 mg/kg i.v.): 204.7 min⁻¹; heart frequency Δ (mongrel cats; 0.50 mg/kg i.v.): -7.3 min⁻¹; blood pressure WD (mongrel cats; 1.00 mg/kg i.v.): 11.2 min; blood pressure after (mongrel cats; 1.00 mg/kg i.v.): 90.7 mm.Hg; blood pressure Δ (mongrel cats; 1.00 mg/kg i.v.): -34.0 mm.Hg; dp/dt (inotropism) after (mongrel cats; 1.00 mg/kg i.v.): 5000 mm.Hg/sec; dp/dt (inotropism) Δ (mongrel cats; 1.00 mg/kg i.v.): -2360 mm.Hg/sec; dp/dt WD (mongrel cats; 1.00 mg/kg i.v.): 25.5 min; heart frequency after (mongrel cats; 1.00 mg/kg i.v.): 197.7 min⁻¹; heart frequency Δ (mongrel cats; 1.00 mg/kg i.v.): -11.7 min⁻¹; blood pressure WD (mongrel cats; 2.50 mg/kg i.v.): > 10 min; blood pressure after (mongrel cats; 2.50 mg/kg i.v.): 80.8 mm.Hg; blood pressure Δ (mongrel cats; 2.50 mg/kg i.v.): -48.7 mm.Hg; dp/dt (inotropism) after (mongrel cats; 2.50 mg/kg i.v.): 3920 mm.Hg/sec; dp/dt (inotropism) Δ (mongrel cats; 2.50 mg/kg i.v.): -3580 mm.Hg/sec; dp/dt WD (mongrel cats; 2.50 mg/kg i.v.): > 10 min; heart frequency after (mongrel cats; 2.50 mg/kg i.v.): 182.0 min⁻¹; heart frequency Δ (mongrel cats; 2.50 mg/kg i.v.): -23.0 min⁻¹ |
| CC(=O)Nc1ccc(OCCCN[C@H]2CO[C@H]3[C@@H]2OC[C@@H]3O[N+](=O)[O-])cc1 [Example 73, 5-[3-(4-Acetamidophenoxy)-propylamino]-5-desoxy-1.4;3.6-dianhydro-L-iditol 2-nitrate] | – | – | – | – | – | – | – | – | – | – | – | – | – | – | – | – | > 200 | – | 0/3 | 0/3 | – |
| COc1cccc(OCCCN[C@H]2CO[C@H]3[C@@H]2OC[C@@H]3O[N+](=O)[O-])c1OC [Example 67, 5-[3-(2,3-Dimethoxyphenoxy)-propylamino]-5-desoxy-1.4;3.6-dianhydro-L-iditol 2-nitrate] | – | – | – | – | – | – | – | – | – | – | – | – | – | – | – | – | ~70 | 0/10 | 3/3 | 3/3 | – |
